According to publication PMC3653948, “PDZ Domain-Mediated Interactions of G Protein-Coupled Receptors with Postsynaptic Density Protein 95: Quantitative Characterization of Interactions” (PLoS ONE, 2013):
Peptide text beside a SMILES is read from it.

What was measured:
PSD-95 PDZ1 = biological target: T1, PSD-95 PDZ1 (Homo sapiens, UniProt P78352); assay: SPR steady-state binding to immobilized PSD-95 PDZ1
T1 construct: PSD-95 PDZ1 (aa 61–151); made in house; host or cells: E. coli One Shot BL21 Star (DE3)
Source text: (§1) To confirm the affinities measured by FP using an orthogonal method and to get information about the kinetics of the GPCR–PDZ interactions, we used SPR. This label-free, surface sensitive technique measures the binding of a ligand to an immobilized protein as a function of time based on refractive index changes.
(§2) For each of the PSD-95 PDZ domains, we determined the K d and the stability of the complexes for selected GPCR C-tail peptides. The residence time τ ( = 1/k d) was used as a convenient measure of the stability of the complexes. […] The K d determined from the steady-state responses of a range of C-tail peptide concentrations (Figure 2B and Table S4) correlated well with the K i values obtained by FP (Figure S1).
(§3) A Biacore X100 (GE Healthcare) SPR instrument equilibrated to 25.0°C and equipped with a Sensor Chip CM5 (for PDZ1 and PDZ2) or CM4 (for PDZ3) (GE Healthcare) was used for the SPR measurements. The running buffer was HBS-EP+ (10 mM HEPES pH 7.4, 150 mM NaCl, 3 mM EDTA, 0.05% Surfactant P-20 (GE Healthcare)).
PDZ domains were immobilized by amine coupling at a flow rate of 5 µl/min on a surface activated by a 7 min injection of a 1∶1 mixture of 0.4 M 1-ethyl-3-(3-dimethylaminopropyl) carbodiimide (EDC) and 0.1 M N-hydroxysuccinimide (NHS). The remaining active groups were deactivated by a 7 min injection of 1 M ethanolamine HCl pH 8.5. 750 RU PDZ1, 780 RU PDZ2, and 410 RU PDZ3 were immobilized.
GPCR C-tail peptide samples were injected in increasing concentrations for 1 min with 1 min dissociation time at 30 µl/min. Reproducibility was tested by injecting the 20 µM sample again after the highest concentration sample. The binding curves were corrected by subtraction of buffer blanks and the response from a reference surface that was activated with EDC and NHS and deactivated with ethanolamine like the surface with immobilized PDZ domain. For peptides with a cysteine, 1 mM dithiothreitol (DTT) was added to the samples. Steady-state response curves were plotted from the responses 10 s before injection end. The K d was determined by fitting steady-state response curves to a 1∶1 binding model with a linear component to corrrect for low affinity binding, probably resulting from the immobilization: Y = Ymax × X/(X+K d)+B × X.

PSD-95 PDZ2 = biological target: T2, PSD-95 PDZ2 (Homo sapiens, UniProt P78352); assay: SPR steady-state binding to immobilized PSD-95 PDZ2
T2 construct: PDZ2 (aa 155–249); made in house; host or cells: E. coli One Shot BL21 Star (DE3)
Source text: as §1, §2
as §3, with “Healthcare)). […]” for “Healthcare)).”
(§4) GPCR C-tail peptide samples were injected in increasing concentrations for 1 min with 1 min dissociation time at 30 µl/min. […] The K d was determined by fitting steady-state response curves to a 1∶1 binding model with a linear component to corrrect for low affinity binding, probably resulting from the immobilization: Y = Ymax × X/(X+K d)+B × X.

PSD-95 PDZ domains = assay: Time-resolved SPR, PSD-95 PDZ domains (kinetics); type: binding; settings: 500 µM C-tail peptide, all three PDZ domains
Source text: as §2
For all combinations of PDZ domains and GPCR C-tail peptides, we observed dissociation of the complexes within the first second of the dissociation phase (Figure 2A) (faster than the time-resolution of the instrument), meaning that τ is less than 1 s (k d >1 s^−1). This implies that the GPCR–PDZ complexes are very transient, which is in agreement with previous work.
A Biacore X100 (GE Healthcare) SPR instrument equilibrated to 25.0°C and equipped with a Sensor Chip CM5 (for PDZ1 and PDZ2) or CM4 (for PDZ3) (GE Healthcare) was used for the SPR measurements. […]
as §4

PSD-95 = assay: FP competition assay, PSD-95 PDZ domains overall (strongest binding domain / non-binders); settings: FP competition with the isolated PDZ domains, peptide typically 1–512 µM
Description: We used a competition set-up, where a constant concentration of isolated PSD-95 PDZ domain and a labeled reference ligand was titrated with unlabeled peptides from the GPCR C-tail library, typically within a 1–512 µM concentration range, and the resulting curves were fitted to obtain the IC50, which was used to calculate the K i (Figure 1). Three Cy5-labeled peptides with well-documented interactions with PSD-95 were used as reference ligands for the competition assay: Cy5-KIF1Bα was used for PDZ1 [20], Cy5-GluN2B (formerly known as NR2B) was used for PDZ2 and PDZ1-2 [21], and Cy5-CRIPT was used for PDZ3 [22] (Table S1). Competition with unlabeled versions of the reference ligands was used to validate the FP assay by comparison with the literature (Table S2).
FP measurements were performed in black, flat bottom 384-well NBS microplates (Corning) on a Synergy H4 microplatereader (BioTek Instruments) equipped with a 620/40 nm excitation filter, a 680/30 nm emission filter, and a 660 nm dichroic mirror. Polarization values were corrected with blank samples and samples with fluorescent probe alone. At least 10 data points were measured for each curve, and each data point was measured in triplicate. 25 nM Cy5-labeled probe was used for each assay: Cy5-KIF1Bα for PDZ1, Cy5-GluN2B for PDZ2 and PDZ1-2, and Cy5-CRIPT for PDZ3. All FP measurements were performed in a buffer containing 10 mM HEPES pH 7.4, 150 mM NaCl, and 1% BSA and incubated at least 15 min at room temperature before reading. The signal was stable for more than an hour, showing that the reaction was at equilibrium.
For the competition binding curves, probe was mixed with a constant concentration of PDZ protein corresponding to the K d and a twofold dilution series of unlabeled peptide in a total volume of 30 µl. The baseline was determined using a sample containing only probe. The IC50 was determined by fitting to a 1∶1 binding model: Y = Ymax − Ymax × X/(X+IC50). The K i was calculated from the IC50 and from the K d for the interaction between the PDZ protein and the probe as described previously.

PSD-95 PDZ3 = biological target: T3, PSD-95 PDZ3 (Homo sapiens, UniProt P78352); assay: SPR steady-state binding to immobilized PSD-95 PDZ3
T3 construct: made in house; host or cells: E. coli One Shot BL21 Star (DE3)
Source text: as §1, §2
as §3, with “Healthcare)). […]” for “Healthcare)).”
as §4

Kd (PSD-95 PDZ1): > 1000 µM
Kd (PSD-95 PDZ2): > 1000 µM
Time-resolved binding to PSD-95 PDZ1, PDZ2 and PDZ3 by SPR (PSD-95 PDZ domains): did not interact
Interaction with PSD-95 using fluorescence polarization (PSD-95): not to interact
Kd (PSD-95 PDZ3): > 1000 µM
Compound: CC[C@H](C)[C@H](NC(=O)[C@H](CO)NC(=O)[C@H](CO)NC(=O)[C@H](CCC(=O)O)NC(=O)[C@@H](NC(=O)[C@H](Cc1c[nH]c2ccccc12)NC(=O)[C@H](C)NC(=O)[C@H](CCCNC(=N)N)NC(=O)[C@H](CCCNC(=N)N)NC(=O)[C@H](CC(=O)O)NC(=O)[C@@H](N)CC(=O)O)[C@@H](C)O)C(=O)N[C@@H](CC(N)=O)C(=O)N[C@H](C(=O)O)[C@@H](C)O (H-DDRRAWTESSINT-OH; N-terminus assumed)
